Values quoted from earlier work as cited in US20130071871A1, “ENZYMATIC DETERMINATION OF LITHIUM IONS USING PHOSPHOGLUCOMUTASE” (SPECIALTY ASSAYS, INC., priority 2011, published 2013).

For `[Li]` [Lithium], the highly toxic level (level chosen for the elevated lithium standard, well above the therapeutic range) is given as about 3 mmol/L and the “serum level too high, severe toxic side effects can occur” value (serum) is given as over 1200 µM.
